# Tested on: JNK
# Experiment: LPS-induced phospho-JNK in RAW264.7 cells, immunoblot
# Type: cell-based, murine
# Conditions: peptide 5 μM, 10 ng/ml LPS 5-60 min
# Experimental: FIGS. 27A, B and C are immunoblots showing the effect of A464 on LPS-induced appearance of phospho-JNK in murine RAW264.7 cells. Cells were set up as for FIG. 25 above and 5 μM A467 (SEQ ID NO. 23) or A464 (SEQ ID NO. 20) were added to the wells 1 hour before stimulation. Cells were stimulated with 10 ng/ml LPS for a period of 5, 15, 30 or 60 min, then harvested and lysed. Proteins were resolved by SDS-PAGE, and transferred membranes immunoblotted for phospho-JNK (A), total JNK (B) or β-actin (C). The blots shown are representative of two experiments;
# RAW264.7 cells were seeded at a density of 1×10^5 cells/ml in 6 well plates. […] The protein concentration was determined by monitoring the change in the solution absorbance at 280 nm using a spectrophotometer compared to protein standards. […] Thereafter, the membranes were washed, incubated in appropriate secondary antibody and then developed using standard enhanced chemi-luminescence (ECL) reagents.
# Next, the effect of A464 (SEQ ID No. 20) on MAPK activation was measured by assaying the phosphorylation of p38 and JNK by Western blot. […] As before the protein concentration in the samples was determined by Bradford assay and the accuracy of the loading was confirmed by re-probing the blot for β-actin. […]
sequence,measurement,value
KYSFKLILAEYRRRRRRRRR [Peptide A464],effect on LPS-induced phosphorylation of JNK,completely inhibited phosphorylation of JNK at all times of the LPS stimulation
